This note sets out measurements from EPA's ToxRefDB 2.

The subject of series [1] is rabbit. The settings on record: Prenatal developmental toxicity study, new zealand white, Oral, Gavage/Intubation, dose end: 19 GD.
The test system of series [2] is rat. Conditions: Subchronic oral toxicity in rodents, sprague dawley, Feed, dose end: 90 day, group: systemic, systemic / hematology / platelet / platelet + systemic / urinalysis / ketones / ketones.
For series [3], the system named is rat. The settings on record: Prenatal developmental toxicity study, wistar, Oral, Gavage/Intubation, dose end: 19 GD.
The test system of series [4] is mouse. Conditions: Carcinogenicity; cd1; Oral; [Not Specified]; dose end: 18 month; group: systemic; systemic / in life observation / body weight / body weight + systemic / in life observation / body weight / body weight gain.
The test system of series [5] is rat. The settings on record: Multigenerational reproductive toxicity study, sprague dawley, Oral, Feed, dose end: 2 generation.
Series [6] concerns dog. Conditions: Chronic toxicity; beagle; Oral; Feed; dose end: 24 month; group: systemic; systemic / in life observation / body weight / body weight gain + systemic / in life observation / food consumption / food efficiency + ….
Series [7] deals with rat. Conditions: Multigenerational reproductive toxicity study, sprague dawley, Oral, Gavage/Intubation, dose end: 2 generation.
Series [8] relates to rat. Conditions: Subchronic oral toxicity in rodents, sprague dawley, Feed, dose end: 13 week, group: systemic, systemic / in life observation / body weight / body weight + systemic / in life observation / body weight / body weight gain + systemic / in….
Series [9] concerns rat. Conditions: Combined chronic toxicity/carcinogenicity, sprague dawley, Oral, Feed, dose end: 24 month, group: systemic.
The test system of series [10] is dog. Conditions: Chronic toxicity, beagle, Oral, Feed, dose end: 52 week, group: systemic.
Series [11] concerns rabbit. Conditions: Prenatal developmental toxicity study, himalayan, Oral, Gavage/Intubation, dose end: 19 GD.
For series [12], the system named is mouse. Conditions: Subchronic oral toxicity in rodents, b6c3f1, Feed, dose end: 90 day, group: systemic.
For series [13], the system named is mouse. Conditions: Carcinogenicity, b6c3f1, Oral, Feed, dose end: 78 week, group: systemic.
The test system of series [14] is mouse. Conditions: Reproduction/developmental toxicity screening test; cd1; Injection; Intraperitoneal; dose end: 14 day; group: maternal; reproductive / reproductive performance / fertility / fertility + reproductive / reproductive performance / implantations / implantations + ….
Series [15] relates to rat. Conditions: Fertility (Segment I), wistar, Injection, Intraperitoneal, dose end: 7 day.
The test system of series [16] is rat. The settings on record: Reproduction/developmental toxicity screening test; wistar; Injection; Intraperitoneal; dose end: 45 PND; group: parental; systemic / organ weight / ovary / nos.
Setting [17] is: group: developmental, systemic / in life observation / body weight / fetal weight.
Setting [18] is: group: maternal, reproductive / reproductive performance / aborted / aborted + reproductive / reproductive performance / postimplantation loss / ….
The mark [19] stands for this setting: group: maternal, systemic / in life observation / body weight / body weight gain.
Where [20] appears, read: group: developmental, developmental / developmental malformation / bone / incomplete ossification.
Setting [21] is: group: developmental, developmental / developmental malformation / bone / incomplete ossification + systemic / in life observation / body weight / fetal weight.
The mark [22] stands for this setting: group: maternal, systemic / in life observation / mortality / mortality + reproductive / offspring survival early / dead fetuses / dead fetuses.
Setting [23] is: group: maternal, systemic / in life observation / mortality / mortality + reproductive / reproductive performance / postimplantation loss / postimplantation ….
[24] abbreviates: group: parental, systemic / in life observation / body weight / body weight.
Where [25] appears, read: group: reproductive, reproductive / reproductive performance / gestational length / gestational length.
Setting [26] is: group: offspring, developmental / offspring survival late / lactation index / lactation index + developmental / offspring survival late / viability index / ….
Where [27] appears, read: group: parental, systemic / in life observation / clinical signs / salivation + systemic / in life observation / body weight / body weight gain + systemic / ….
[28] abbreviates: group: reproductive, reproductive / offspring survival early / litter size / litter size.
Where [29] appears, read: systemic / in life observation / body weight / body weight + systemic / in life observation / body weight / body weight gain + systemic / in….
[30] abbreviates: systemic / organ weight / liver / relative to body weight.
The mark [31] stands for this setting: systemic / organ weight / liver / relative to body weight + systemic / clinical chemistry / alanine aminotransferase (alt/sgpt) / alanine ….
The mark [32] stands for this setting: group: maternal, systemic / in life observation / body weight / body weight gain + systemic / in life observation / food consumption / food consumption.
[33] abbreviates: group: maternal, systemic / in life observation / body weight / body weight gain + systemic / in life observation / food consumption / food consumption + ….
Setting [34] is: systemic / in life observation / body weight / body weight gain.
[35] abbreviates: systemic / in life observation / body weight / body weight gain + systemic / organ weight / kidney / absolute.
The mark [36] stands for this setting: systemic / in life observation / body weight / body weight + systemic / organ weight / brain / nos + systemic / organ weight / kidney / nos.
[37] abbreviates: group: maternal, reproductive / reproductive performance / estrous cycle / length.
The mark [38] stands for this setting: group: parental, systemic / clinical chemistry / estradiol / estradiol, free + systemic / pathology microscopic / vagina / diestrus.

A word on the LOAEL: it is the lowest dose or exposure tested at which an adverse effect was seen. Usually NOAEL stands for the highest tested level that showed no adverse finding. In the series on rabbit [1] (setting [17]), `COc1cc(OC)nc(NC(=O)NS(=O)(=O)c2ncccc2C(=O)N(C)C)n1` [Nicosulfuron] had an LEL of 100 mg/kg/day, an LOAEL of 1000 mg/kg/day, an NEL of less than 100 mg/kg/day and a no observed adverse effect level (NOAEL) of 500 mg/kg/day. In the series with rabbit [1] (setting [18]), the LOAEL is 500 mg/kg/day and the NOAEL was determined as 100 mg/kg/day. In the series with rabbit [1] (setting [19]), the LEL is 100 mg/kg/day and the NEL was less than 100 mg/kg/day. Further, in the series with rat [2], the LEL stood at 15 mg/kg/day, the lowest observed adverse effect level (LOAEL) is 15 mg/kg/day, the NEL was less than 15 mg/kg/day and the NOAEL was less than 15 mg/kg/day.
Regarding `CCCOC(=O)NCCCN(C)C.Cl` [Propamocarb hydrochloride], the LEL in the series on rat [3] (setting [20]) is 740 mg/kg/day; in the series on rat [3] (setting [22]) it was 740 mg/kg/day; with mouse [4], 95 mg/kg/day; with rat [5] (group: offspring, systemic / organ weight / brain / absolute), 85.3 mg/kg/day; in the series on rat [5] (setting [24]) it was 407 mg/kg/day; in the series on rat [5] (setting [25]), 467 mg/kg/day. The LEL in the series on dog [6] was found to be 22.8 mg/kg/day; in the series with rat [7] (setting [26]) it was 1000 mg/kg/day; in the series with rat [7] (setting [27]) it was 200 mg/kg/day; in the series with rat [7] (setting [28]), 1000 mg/kg/day; with rat [8], 716 mg/kg/day; in the series with rat [9] (setting [29]), 682 mg/kg/day. For the same compound, the LOAEL in the series on rat [3] (setting [20]) is 740 mg/kg/day; in the series on rat [3] (setting [22]), 740 mg/kg/day; in the series on mouse [4] it was 95 mg/kg/day; with rat [5] (group: offspring, systemic / in life observation / body weight / offspring (pup) weight) it was 485 mg/kg/day; with rat [5] (setting [24]), 407 mg/kg/day; in the series with rat [5] (setting [25]), more than 467 mg/kg/day. Further, the LOAEL in the series with dog [6] was 22.8 mg/kg/day; in the series on rat [7] (setting [26]) it was 1000 mg/kg/day; in the series on rat [7] (setting [27]) it was 1000 mg/kg/day; with rat [7] (setting [28]) it was 1000 mg/kg/day; in the series on rat [8] it was 716 mg/kg/day; in the series with rat [9] (setting [29]), 682 mg/kg/day. Moreover, the NEL stood at 221 mg/kg/day in the series with rat [3] (setting [21]); 221 mg/kg/day with rat [3] (setting [23]); 12 mg/kg/day in the series with mouse [4]; 14.2 mg/kg/day with rat [5] (group: offspring, systemic / organ weight / brain / absolute + systemic / in life observation / body weight / offspring (pup) weight + systemic / organ weight…); 65.4 mg/kg/day in the series with rat [5] (setting [24]); 76.8 mg/kg/day in the series on rat [5] (setting [25]). Moreover, the NEL with dog [6] was less than 22.8 mg/kg/day; in the series with rat [7] (setting [26]) it was 200 mg/kg/day; with rat [7] (setting [27]) it was 50 mg/kg/day; in the series with rat [7] (setting [28]), 200 mg/kg/day; in the series with rat [8], 363 mg/kg/day; in the series on rat [9] (systemic / pathology microscopic / brain / vacuolization) it was 84 mg/kg/day. Moreover, the NOAEL in the series with rat [3] (setting [21]) is 221 mg/kg/day; with rat [3] (setting [23]), 221 mg/kg/day; with mouse [4], 12 mg/kg/day; in the series with rat [5] (group: offspring, systemic / in life observation / body weight / offspring (pup) weight + systemic / organ weight / brain / relative to body weight + systemic…), 75.4 mg/kg/day; in the series on rat [5] (setting [24]), 65.4 mg/kg/day; in the series with rat [5] (setting [25]), not below 467 mg/kg/day. Further, the NOAEL with dog [6] was less than 22.8 mg/kg/day; in the series with rat [7] (setting [26]), 200 mg/kg/day; with rat [7] (setting [27]), 200 mg/kg/day; with rat [7] (setting [28]), 200 mg/kg/day; in the series with rat [8], 363 mg/kg/day; in the series on rat [9] (setting [29]), 84 mg/kg/day.
With `O=C(O)c1c(Cl)ccc2cc(Cl)cnc12` [Quinclorac], the LEL was determined as 34.5 mg/kg/day in the series on dog [10] (setting [30]); 600 mg/kg/day in the series with rabbit [11] (setting [17]); 200 mg/kg/day with rabbit [11] (setting [32]); 1000 mg/kg/day in the series with mouse [12] (setting [35]); 150 mg/kg/day in the series with mouse [13] (systemic / in life observation / body weight / body weight + systemic / organ weight / kidney / nos). Also, the NEL was less than 34.5 mg/kg/day in the series on dog [10] (setting [30]); 200 mg/kg/day with rabbit [11] (setting [17]); 70 mg/kg/day in the series on rabbit [11] (setting [33]); less than 1000 mg/kg/day in the series with mouse [12] (setting [35]); 37.5 mg/kg/day with mouse [13] (setting [36]). Further, the LOAEL in the series on dog [10] (setting [31]) turned out to be 469 mg/kg/day; in the series with rabbit [11] (setting [17]), 600 mg/kg/day; in the series with rabbit [11] (setting [32]), 200 mg/kg/day; in the series with mouse [12] (setting [34]), 1000 mg/kg/day; in the series with mouse [13] (systemic / in life observation / body weight / body weight), 150 mg/kg/day. Moreover, the NOAEL in the series on dog [10] (setting [31]) is 140 mg/kg/day; with rabbit [11] (setting [17]) it was 200 mg/kg/day; with rabbit [11] (setting [33]), 70 mg/kg/day; in the series with mouse [12] (setting [34]), less than 1000 mg/kg/day; in the series with mouse [13] (setting [36]) it was 37.5 mg/kg/day.
On to `CC(=O)S[C@@H]1CC2=CC(=O)CC[C@]2(C)[C@H]2CC[C@@]3(C)[C@@H](CC[C@@]34CCC(=O)O4)[C@H]12` [Spironolactone], for which the LEL in the series with mouse [14], in the series with rat [15] (setting [37]), in the series with rat [15] (setting [38]) and with rat [16] was 100 mg/kg/day each time. The LOAEL with mouse [14], with rat [15] (setting [37]), with rat [15] (setting [38]) and in the series on rat [16] was more than 100 mg/kg/day throughout. Further, the NEL with mouse [14], with rat [15] (setting [37]), with rat [15] (setting [38]) and in the series with rat [16] was less than 100 mg/kg/day throughout. Further, the NOAEL in the series with mouse [14], in the series on rat [15] (setting [37]), in the series with rat [15] (setting [38]) and in the series on rat [16] was not below 100 mg/kg/day in each case.
